Read-outs that look alike come from different tables or passages of the source.

One test concerns the target EGFR del19/C797S (Homo sapiens, UniProt P00533, C797S/DEL746-750). The test can be described thus: Biochemical EGFR kinase assay (Lance Ultra TR-FRET), double mutant del19/C797S. The essentials:
(§1)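 Enzyme reactions lasted 1 hour at room temperature with test compounds between 0.003 and 10 μM, followed by 10 mM EDTA quench.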
For orientation: In TR-FRET formats the signal depends on donor and acceptor labels being close together.

The next test addresses EGFR L858R/T790M/C797S (Homo sapiens, UniProt P00533, C797S/L858R/T790M). The test can be described thus: Biochemical EGFR kinase assay (Lance Ultra TR-FRET), triple mutant L858R/T790M/C797S. The essentials:
as §1

A further test concerns the target EGFR L858R/C797S (Homo sapiens, UniProt P00533, C797S/L858R). The test can be described thus: Biochemical EGFR kinase assay (Lance Ultra TR-FRET), double mutant L858R/C797S. The gist of the method:
as §1

A further test addresses EGFR del19/T790M/C797S (Homo sapiens, UniProt P00533, C797S/DEL746-750/T790M). Briefly: Biochemical EGFR kinase assay (Lance Ultra TR-FRET), triple mutant del19/T790M/C797S. The gist of the method:
as §1

For the next test, the target named is EGFR wildtype (Homo sapiens, UniProt P00533). The test can be described thus: Biochemical EGFR kinase assay (Lance Ultra TR-FRET), wildtype. The gist of the method:
as §1

Setting [1] is: IC50 del19/C797S (nM) 100 μM ATP, 100 μM ATP.
The mark [2] stands for this setting: Km ATP, read-out: IC50 del19/C797S (nM) Km ATP.
Where [3] appears, read: IC50 L858R/T790M/C797S (nM) 100 μM ATP, 100 μM ATP.
The mark [4] stands for this setting: Km ATP, read-out: IC50 L858R/T790M/C797S (nM) Km ATP.
[5] abbreviates: IC50 L858R/C797S (nM) 100 μM ATP, 100 μM ATP.
Setting [6] is: Km ATP, read-out: IC50 L858R/C797S (nM) Km ATP.
Where [7] appears, read: Km ATP, read-out: IC50 del19/T790M/C797S (nM) Km ATP.
Where [8] appears, read: IC50 WT (nM) 100 μM ATP, 100 μM ATP.
Where [9] appears, read: Km ATP, read-out: IC50 WT (nM) Km ATP.
Where [10] appears, read: ATP at Km, read-out: IC50 del19/C797S, Km ATP.
Where [11] appears, read: ATP at Km, read-out: IC50 L858R/T790M/C797S, Km ATP.
The mark [12] stands for this setting: IC50 L858R/T790M/C797S, 100 μM ATP.
Setting [13] is: ATP at Km, read-out: IC50 L858R/C797S, Km ATP.
Where [14] appears, read: ATP at Km, read-out: IC50 del19/T790M/C797S, Km ATP.
Setting [15] is: IC50 del19/T790M/C797S, 100 μM ATP.
The mark [16] stands for this setting: ATP at Km, read-out: IC50 WT, Km ATP.

EGFR L858R/T790M/C797S, sequence (P00533 25-1210 T790M/C797S/L858R): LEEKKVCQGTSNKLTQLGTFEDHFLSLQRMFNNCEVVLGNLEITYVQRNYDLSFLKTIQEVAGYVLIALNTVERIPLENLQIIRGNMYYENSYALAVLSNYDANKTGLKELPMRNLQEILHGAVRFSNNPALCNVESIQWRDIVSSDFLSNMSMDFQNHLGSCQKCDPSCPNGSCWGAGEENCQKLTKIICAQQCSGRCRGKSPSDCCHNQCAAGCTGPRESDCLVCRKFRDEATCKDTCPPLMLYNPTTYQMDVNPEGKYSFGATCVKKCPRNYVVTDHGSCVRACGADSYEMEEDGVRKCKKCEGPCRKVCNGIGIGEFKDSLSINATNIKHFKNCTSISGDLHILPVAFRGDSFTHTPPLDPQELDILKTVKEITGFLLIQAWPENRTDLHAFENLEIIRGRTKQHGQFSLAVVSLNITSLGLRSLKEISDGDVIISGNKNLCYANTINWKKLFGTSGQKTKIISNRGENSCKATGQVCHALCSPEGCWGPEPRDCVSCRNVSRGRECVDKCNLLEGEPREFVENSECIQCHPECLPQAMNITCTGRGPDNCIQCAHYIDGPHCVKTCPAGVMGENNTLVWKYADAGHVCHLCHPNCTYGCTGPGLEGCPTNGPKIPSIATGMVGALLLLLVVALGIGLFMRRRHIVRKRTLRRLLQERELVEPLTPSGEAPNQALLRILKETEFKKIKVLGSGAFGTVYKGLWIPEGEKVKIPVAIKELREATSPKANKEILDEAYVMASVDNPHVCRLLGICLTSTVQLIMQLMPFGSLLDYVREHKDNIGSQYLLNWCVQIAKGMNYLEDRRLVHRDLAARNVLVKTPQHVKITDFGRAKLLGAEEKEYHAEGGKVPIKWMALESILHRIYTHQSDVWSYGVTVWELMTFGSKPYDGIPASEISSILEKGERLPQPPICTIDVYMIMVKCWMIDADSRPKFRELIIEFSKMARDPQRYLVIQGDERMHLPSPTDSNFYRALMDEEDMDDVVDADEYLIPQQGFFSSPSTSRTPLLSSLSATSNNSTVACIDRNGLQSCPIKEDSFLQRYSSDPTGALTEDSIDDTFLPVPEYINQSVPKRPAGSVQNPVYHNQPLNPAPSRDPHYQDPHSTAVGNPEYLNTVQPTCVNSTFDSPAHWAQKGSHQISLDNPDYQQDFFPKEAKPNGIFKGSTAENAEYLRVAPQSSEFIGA
EGFR L858R/C797S, sequence (P00533 25-1210 C797S/L858R): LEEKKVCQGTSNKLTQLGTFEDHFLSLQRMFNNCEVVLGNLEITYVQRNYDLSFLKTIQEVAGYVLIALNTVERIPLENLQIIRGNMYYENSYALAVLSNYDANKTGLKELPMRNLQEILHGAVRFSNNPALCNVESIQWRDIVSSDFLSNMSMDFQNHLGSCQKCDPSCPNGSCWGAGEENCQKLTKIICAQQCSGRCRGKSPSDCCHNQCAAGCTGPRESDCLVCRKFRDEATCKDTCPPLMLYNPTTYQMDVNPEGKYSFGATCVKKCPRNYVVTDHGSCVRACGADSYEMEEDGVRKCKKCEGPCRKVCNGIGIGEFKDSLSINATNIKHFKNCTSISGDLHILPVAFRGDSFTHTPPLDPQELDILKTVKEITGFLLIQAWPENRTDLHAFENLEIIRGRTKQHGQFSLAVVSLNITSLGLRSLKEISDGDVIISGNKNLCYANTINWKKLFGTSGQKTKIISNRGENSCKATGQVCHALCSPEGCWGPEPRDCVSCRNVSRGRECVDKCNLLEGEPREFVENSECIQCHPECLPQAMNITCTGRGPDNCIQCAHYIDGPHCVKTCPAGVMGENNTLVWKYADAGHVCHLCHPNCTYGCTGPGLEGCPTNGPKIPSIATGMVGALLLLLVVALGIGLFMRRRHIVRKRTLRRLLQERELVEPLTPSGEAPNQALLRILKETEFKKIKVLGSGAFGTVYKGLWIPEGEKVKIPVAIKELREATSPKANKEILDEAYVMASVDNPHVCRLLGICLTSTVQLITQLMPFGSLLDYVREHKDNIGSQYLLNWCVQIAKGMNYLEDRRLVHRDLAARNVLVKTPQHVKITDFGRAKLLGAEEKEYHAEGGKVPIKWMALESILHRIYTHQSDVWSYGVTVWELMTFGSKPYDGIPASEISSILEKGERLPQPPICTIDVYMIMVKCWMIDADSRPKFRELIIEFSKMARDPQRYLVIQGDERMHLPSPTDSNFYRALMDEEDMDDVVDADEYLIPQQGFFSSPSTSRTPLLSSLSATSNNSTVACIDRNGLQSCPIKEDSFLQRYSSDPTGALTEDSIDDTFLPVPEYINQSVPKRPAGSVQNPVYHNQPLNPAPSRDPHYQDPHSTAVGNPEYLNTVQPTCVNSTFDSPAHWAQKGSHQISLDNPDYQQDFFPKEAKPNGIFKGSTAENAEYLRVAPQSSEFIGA
EGFR del19/T790M/C797S, sequence (P00533 with tags, fused parts or gaps DEL746-750/T790M/C797S): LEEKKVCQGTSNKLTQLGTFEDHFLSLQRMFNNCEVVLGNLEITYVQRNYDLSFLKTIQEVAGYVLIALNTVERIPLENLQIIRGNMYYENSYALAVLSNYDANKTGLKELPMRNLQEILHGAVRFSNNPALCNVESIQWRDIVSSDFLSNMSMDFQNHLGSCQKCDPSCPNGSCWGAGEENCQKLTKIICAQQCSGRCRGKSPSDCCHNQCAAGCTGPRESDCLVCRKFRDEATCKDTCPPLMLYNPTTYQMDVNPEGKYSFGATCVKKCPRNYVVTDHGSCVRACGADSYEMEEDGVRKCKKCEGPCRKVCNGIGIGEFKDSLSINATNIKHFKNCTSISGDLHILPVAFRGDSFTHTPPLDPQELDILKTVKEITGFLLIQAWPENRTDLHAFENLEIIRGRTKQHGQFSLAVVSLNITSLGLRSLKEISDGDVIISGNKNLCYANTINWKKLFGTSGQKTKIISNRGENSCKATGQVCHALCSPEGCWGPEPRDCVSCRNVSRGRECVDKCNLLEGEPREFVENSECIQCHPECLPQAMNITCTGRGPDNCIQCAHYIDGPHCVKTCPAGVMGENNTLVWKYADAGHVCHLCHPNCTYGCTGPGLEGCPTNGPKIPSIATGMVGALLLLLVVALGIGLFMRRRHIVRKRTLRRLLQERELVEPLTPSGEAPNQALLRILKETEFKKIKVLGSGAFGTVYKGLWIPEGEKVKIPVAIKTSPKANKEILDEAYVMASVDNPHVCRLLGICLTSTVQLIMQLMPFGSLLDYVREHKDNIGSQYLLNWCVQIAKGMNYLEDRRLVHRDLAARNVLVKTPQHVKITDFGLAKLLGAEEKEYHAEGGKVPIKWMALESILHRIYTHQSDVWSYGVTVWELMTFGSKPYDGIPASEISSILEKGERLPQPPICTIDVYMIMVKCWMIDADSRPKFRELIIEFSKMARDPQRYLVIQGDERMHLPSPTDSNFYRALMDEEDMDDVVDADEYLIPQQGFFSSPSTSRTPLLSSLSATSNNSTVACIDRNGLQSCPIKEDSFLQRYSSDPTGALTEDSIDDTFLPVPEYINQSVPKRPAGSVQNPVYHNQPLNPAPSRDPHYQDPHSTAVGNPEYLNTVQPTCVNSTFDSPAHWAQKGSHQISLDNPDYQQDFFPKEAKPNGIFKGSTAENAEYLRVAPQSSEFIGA
EGFR wildtype, sequence (P00533 25-1210): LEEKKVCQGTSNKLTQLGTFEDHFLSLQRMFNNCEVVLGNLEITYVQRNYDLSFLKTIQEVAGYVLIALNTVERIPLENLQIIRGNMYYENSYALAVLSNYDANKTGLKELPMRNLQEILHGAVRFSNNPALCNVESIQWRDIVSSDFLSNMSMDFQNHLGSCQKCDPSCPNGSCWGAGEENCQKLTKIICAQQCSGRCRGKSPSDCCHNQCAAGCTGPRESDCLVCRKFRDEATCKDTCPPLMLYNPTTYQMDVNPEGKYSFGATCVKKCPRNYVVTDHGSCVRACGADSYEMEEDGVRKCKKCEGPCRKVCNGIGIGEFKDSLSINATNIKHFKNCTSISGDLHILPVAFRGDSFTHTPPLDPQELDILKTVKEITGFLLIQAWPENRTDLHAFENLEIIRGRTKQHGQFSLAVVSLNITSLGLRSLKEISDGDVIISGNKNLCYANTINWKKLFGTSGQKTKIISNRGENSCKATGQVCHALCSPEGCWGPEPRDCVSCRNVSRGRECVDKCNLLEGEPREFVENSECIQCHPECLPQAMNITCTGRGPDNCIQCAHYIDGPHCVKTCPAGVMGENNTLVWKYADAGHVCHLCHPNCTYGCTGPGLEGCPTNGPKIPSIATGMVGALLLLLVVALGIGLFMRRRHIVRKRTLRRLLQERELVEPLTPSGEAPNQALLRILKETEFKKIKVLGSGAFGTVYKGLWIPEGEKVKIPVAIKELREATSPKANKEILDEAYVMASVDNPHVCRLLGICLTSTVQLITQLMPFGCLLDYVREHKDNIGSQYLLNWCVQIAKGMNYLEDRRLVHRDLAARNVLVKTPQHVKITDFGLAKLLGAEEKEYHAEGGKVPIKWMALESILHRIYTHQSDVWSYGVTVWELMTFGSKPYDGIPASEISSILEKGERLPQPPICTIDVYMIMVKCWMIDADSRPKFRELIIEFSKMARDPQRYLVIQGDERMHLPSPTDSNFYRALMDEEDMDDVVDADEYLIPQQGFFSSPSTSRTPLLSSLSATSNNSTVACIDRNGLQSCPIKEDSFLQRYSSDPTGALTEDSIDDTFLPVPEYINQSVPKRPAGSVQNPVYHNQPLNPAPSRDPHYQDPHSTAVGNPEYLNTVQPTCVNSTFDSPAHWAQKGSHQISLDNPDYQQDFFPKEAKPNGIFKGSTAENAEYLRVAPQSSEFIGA

As to `CC(C)(O)c1ccnc(-c2cnc(Nc3ccnc(-c4cnn(S(=O)(=O)C5CC5)c4)n3)cc2N[C@H]2CC[C@@H](C(C)(C)O)CC2)c1` [Example 109, 2-(6′-((2-(1-(Cyclopropylsulfonyl)-1H-pyrazol-4-yl)pyrimidin-4-yl)amino)-4′-(((1s,4s)-4-(2-hydroxypropan-2-yl)cyclohexyl)amino)-[2,3′-bipyridin]-4-yl)propan-2-ol], the IC50 is 6.4 nM at EGFR del19/C797S (setting [1]); 0.8 nM on EGFR del19/C797S (setting [2]); 0.5 nM at EGFR L858R/T790M/C797S (setting [3]); 0.6 nM at EGFR L858R/T790M/C797S (setting [4]); 11.1 nM against EGFR L858R/C797S (setting [5]); 0.1 nM at EGFR L858R/C797S (setting [6]). In addition, the IC50 on EGFR del19/T790M/C797S (setting [7]) came to 2 nM; against EGFR wildtype (setting [8]) it was 1360 nM; on EGFR wildtype (setting [9]), 5.2 nM.

As to `CN(C)C[C@H]1CC[C@@H](Nc2cc(Nc3ccnc(-c4cnn(S(=O)(=O)C5CC5)c4)n3)ncc2-c2cc(NC3CC(F)(F)C3)ccn2)CC1` [Example 216, N^6′-(2-(1-(Cyclopropylsulfonyl)-1H-pyrazol-4-yl)pyrimidin-4-yl)-N^4-(3,3-difluorocyclobutyl)-N^4′-((1s,4s)-4-((dimethylamino)methyl)cyclohexyl)-[2,3′-bipyridine]-4,4′,6′-triamine], the IC50 was found to be 0.8 nM on EGFR del19/C797S (setting [10]); 1.3 nM on EGFR del19/C797S (IC50 del19/C797S, 100 μM ATP); 0.8 nM at EGFR L858R/T790M/C797S (setting [11]); 0.7 nM at EGFR L858R/T790M/C797S (setting [12]); 0.3 nM on EGFR L858R/C797S (setting [13]); 1.4 nM at EGFR L858R/C797S (IC50 L858R/C797S, 100 μM ATP). For the same compound, the IC50 at EGFR del19/T790M/C797S (setting [14]) is 1.2 nM; on EGFR del19/T790M/C797S (setting [15]), 1.2 nM; on EGFR wildtype (setting [16]), 0.8 nM; against EGFR wildtype (IC50 WT, 100 μM ATP), 136 nM.

As for `CC(C)(O)c1ccc(-c2cnc(Nc3ccnc(-c4cnn(S(=O)(=O)C5CC5)c4)n3)cc2N[C@H]2CC[C@@](C)(O)CC2)nc1` [Example 168, (1s,4s)-4-((6′-((2-(1-(Cyclopropylsulfonyl)-1H-pyrazol-4-yl)pyrimidin-4-yl)amino)-5-(2-hydroxypropan-2-yl)-[2,3′-bipyridin]-4′-yl)amino)-1-methylcyclohexan-1-ol], the IC50 is 0.2 nM on EGFR del19/C797S (setting [10]); 0.4 nM against EGFR del19/C797S (IC50 del19/C797S, 100 μM ATP); 0.2 nM on EGFR L858R/T790M/C797S (setting [11]); 0.2 nM against EGFR L858R/T790M/C797S (setting [12]); 0.2 nM on EGFR L858R/C797S (setting [13]); 0.5 nM on EGFR L858R/C797S (IC50 L858R/C797S, 100 μM ATP). The IC50 at EGFR del19/T790M/C797S (setting [14]) came to 0.4 nM; on EGFR del19/T790M/C797S (setting [15]) it was 0.3 nM; at EGFR wildtype (IC50 WT, 100 μM ATP), 92.2 nM.

Turning to `C[C@]1(O)CC[C@@H](Nc2cc(Nc3ccnc(-c4cnn(S(=O)(=O)C5CC5)c4)n3)ncc2-c2cnc(F)cn2)CC1` [Example 185, (1s,4s)-4-((2-((2-(1-(Cyclopropylsulfonyl)-1H-pyrazol-4-yl)pyrimidin-4-yl)amino)-5-(5-fluoropyrazin-2-yl)pyridin-4-yl)amino)-1-methylcyclohexan-1-ol], the IC50 at EGFR del19/C797S (setting [10]) worked out at 6.7 nM; at EGFR del19/C797S (IC50 del19/C797S, 100 μM ATP), 20.3 nM; against EGFR L858R/T790M/C797S (setting [12]), 1.9 nM; at EGFR L858R/C797S (setting [13]), 3 nM; against EGFR L858R/C797S (IC50 L858R/C797S, 100 μM ATP) it was 32.1 nM; on EGFR del19/T790M/C797S (setting [14]), 2 nM. Moreover, the IC50 was 8.3 nM at EGFR del19/T790M/C797S (setting [15]); 111 nM at EGFR wildtype (setting [16]); above 10000 nM against EGFR wildtype (IC50 WT, 100 μM ATP).

Turning to `CN1CCC(Oc2ccc(-c3cnc(Nc4ccnc(-c5cnn(S(=O)(=O)C6CC6)c5)n4)cc3NC3CCC(F)(F)CC3)nc2)CC1` [Example 255, N^6′-(2-(1-(Cyclopropylsulfonyl)-1H-pyrazol-4-yl)pyrimidin-4-yl)-N^4′-(4,4-difluorocyclohexyl)-5-((1-methylpiperidin-4-yl)oxy)-[2,3′-bipyridine]-4′,6′-diamine], the IC50 at EGFR del19/C797S (setting [10]) was 0.5 nM; on EGFR L858R/T790M/C797S (setting [11]), 0.03 nM; on EGFR L858R/C797S (setting [13]), 0.02 nM; on EGFR del19/T790M/C797S (setting [14]) it was 0.1 nM; on EGFR wildtype (setting [16]) it was 1.9 nM.

On to `CC(C)(F)c1ccc(-c2cnc(Nc3ccnc(-c4cnn(S(=O)(=O)C5CC5)c4)n3)cc2N[C@H]2CC[C@@H](CO)CC2)nc1` [Example 235, ((1s,4s)-4-((6′-((2-(1-(Cyclopropylsulfonyl)-1H-pyrazol-4-yl)pyrimidin-4-yl)amino)-5-(2-fluoropropan-2-yl)-[2,3′-bipyridin]-4′-yl)amino)cyclohexyl)methanol], for which the IC50 at EGFR del19/C797S (setting [10]) came to 3.1 nM; at EGFR L858R/T790M/C797S (setting [11]) it was 0.8 nM; against EGFR L858R/T790M/C797S (setting [12]), 2.7 nM; on EGFR L858R/C797S (setting [13]), 1 nM; at EGFR L858R/C797S (IC50 L858R/C797S, 100 μM ATP), 8.1 nM; on EGFR del19/T790M/C797S (setting [14]), 1 nM. For the same compound, the IC50 on EGFR wildtype (setting [16]) came to 4.9 nM; on EGFR wildtype (IC50 WT, 100 μM ATP) it was 692 nM.

As for `CN1CCN(Cc2ccc(-c3cnc(Nc4ccnc(-c5cnn(S(=O)(=O)C6CC6)c5)n4)cc3N[C@H]3CC[C@@](C)(O)CC3)nc2)CC1` [Example 9, (1s,4s)-4-((6′-((2-(1-(Cyclopropylsulfonyl)-1H-pyrazol-4-yl)pyrimidin-4-yl)amino)-5-((4-methylpiperazin-1-yl)methyl)-[2,3′-bipyridin]-4′-yl)amino)-1-methylcyclohexan-1-ol], the IC50 on EGFR del19/C797S (setting [1]) was 0.7 nM; on EGFR del19/C797S (setting [2]) it was 0.2 nM; on EGFR L858R/T790M/C797S (setting [3]), 0.3 nM; at EGFR L858R/T790M/C797S (setting [4]) it was 0.1 nM; against EGFR L858R/C797S (setting [5]) it was 1.9 nM; on EGFR L858R/C797S (setting [6]), 0.2 nM. The IC50 is 0.1 nM at EGFR del19/T790M/C797S (IC50 del19/T790M/C797S (nM) 100 μM ATP, 100 μM ATP); 167 nM at EGFR wildtype (setting [8]); 1 nM on EGFR wildtype (setting [9]).

Regarding `CN1CCC(Oc2ccc(-c3cnc(Nc4ccnc(-c5cnn(S(=O)(=O)C6CC6)c5)n4)cc3NC3CCC(F)(F)C3)nc2)CC1` (stereo not shown) [Example 143, N^6′-(2-(1-(Cyclopropylsulfonyl)-1H-pyrazol-4-yl)pyrimidin-4-yl)-N^4′-(3,3-difluorocyclopentyl)-5-((1-methylpiperidin-4-yl)oxy)-[2,3′-bipyridine]-4′,6′-diamine], the IC50 on EGFR del19/C797S (setting [2]) amounted to 1 nM; on EGFR L858R/T790M/C797S (setting [4]), 0.2 nM; at EGFR L858R/C797S (setting [6]), 1.1 nM; on EGFR del19/T790M/C797S (setting [7]) it was 0.1 nM; at EGFR wildtype (setting [9]) it was 7.9 nM.

`O=S(=O)(C1CC1)n1cc(-c2nccc(Nc3cc(N[C@H]4CC[C@@H](CO)CC4)c(-c4cccc(F)n4)cn3)n2)cn1` [Example 272, ((1s,4s)-4-((6′-((2-(1-(Cyclopropylsulfonyl)-1H-pyrazol-4-yl)pyrimidin-4-yl)amino)-6-fluoro-[2,3′-bipyridin]-4′-yl)amino)cyclohexyl)methanol]: the IC50 on EGFR del19/C797S (setting [10]) stood at 0.6 nM; on EGFR del19/C797S (IC50 del19/C797S, 100 μM ATP), 0.7 nM; at EGFR L858R/T790M/C797S (setting [11]) it was 0.1 nM; against EGFR L858R/T790M/C797S (setting [12]), 0.3 nM; at EGFR L858R/C797S (setting [13]), 1 nM; at EGFR L858R/C797S (IC50 L858R/C797S, 100 μM ATP), 2.5 nM. Moreover, the IC50 on EGFR del19/T790M/C797S (setting [14]) is 0.3 nM; on EGFR del19/T790M/C797S (setting [15]) it was 0.5 nM; at EGFR wildtype (setting [16]), 1.4 nM; against EGFR wildtype (IC50 WT, 100 μM ATP), 495 nM.

Regarding `C[C@]1(O)CC[C@@H](Nc2cc(Nc3nc(-c4cnn(S(=O)(=O)C5CC5)c4)ncc3F)ncc2-c2ccc(CC(F)(F)F)cn2)CC1` [Example 299, (1s,4s)-4-((6′-((2-(1-(Cyclopropylsulfonyl)-1H-pyrazol-4-yl)-5-fluoropyrimidin-4-yl)amino)-5-(2,2,2-trifluoroethyl)-[2,3′-bipyridin]-4′-yl)amino)-1-methylcyclohexan-1-ol], the IC50 at EGFR del19/C797S (setting [10]) amounted to 28.6 nM; at EGFR L858R/T790M/C797S (setting [11]), 3.2 nM; on EGFR L858R/C797S (setting [13]) it was 8.5 nM; at EGFR del19/T790M/C797S (setting [14]) it was 5.7 nM; on EGFR wildtype (setting [16]), 245 nM.

These data come from patent US12258328B2, “6-membered heteroaryl-containing aminopyridine compounds as EGFR inhibitors” (YUHAN CORPORATION, priority 2021, dated 2025).
